Experimental findings from patent US8697064B2, “Nitrogenated derivatives of pancratistatin” (Pierre Fabre Medicament, priority 2008, dated 2014) are described below.

One data set has as its system line A549 (lung). Nature of the data set: Cytotoxic activity: inhibition of cell proliferation, ATPLite luminescence of residual ATP after 72 hours. It counts as cell-based, human. The conditions noted are these: A549 lung tumoral line, 72 hours of incubation. The procedure:
(§1) The cytotoxic activity of the compounds prepared according to the invention was evaluated by measuring inhibition of the cell proliferation of tumoral lines of human origin, such as line A549 (lung) and line HCT 116 (colon). This activity is expressed by IC50, concentration of the tested product capable of inhibiting 50% of cell proliferation. The method used is luminescence measurement of the residual ATP after 72 hours of incubation using the “ATPLite®” kit marketed by Perkin Elmer, as described in the following publication: “Measurement of cytotoxicity by ATP-based luminescence assay in primary cell cultures and cell lines”. I. A. Cree, P. E. Andreotti, Toxicology in Vitro, 11, 553-6, (1997).
(§2) The concentration values are expressed in nanomolar (nM).
(Cellular ATP, detected with luciferase, serves as a proxy for viable cell number.)

The next data set relates to line HCT 116 (colon). Described as above. Type of data set: cell-based, human. The following applies: HCT 116 colon tumoral line, 72 hours of incubation, read-out: IC50 (nM) HCT116. As to the method:
as §1, §2

The nature of data set [1]: Solubility measurement in buffer D-PBS 1X (pH = 7.2). The following applies: for solubility: pH 7.2, aqueous buffer. The source says: The solvent used is constituted by a buffered solution at pH=7.2 “Dulbecco's Phosphate Buffered Saline” (D-PBS 1X), marketed by Gibco (reference 14190).

Values joined by “and” are separate entries in the source; they are usually repeats but may differ in a detail not shown here. Equal entries are not always repeated. Structures can show the parent of a compound that is named as a salt. Where two headings read alike, the source gives them in different places.

One may read the IC50 as the concentration that inhibits the measured activity by half. Usually solubility stands for the dissolved amount per volume that the medium holds.

Take `[N-]=[N+]=N[C@H]1[C@H](O)[C@@H](O)[C@@H](O)[C@@H]2NC(=O)c3c(cc4c(c3O)OCO4)[C@@H]12` [Compound 5, (1R,2S,3S,4S,4aR,11bR)-1-azido-2,3,4,7-tetrahydroxy-1,2,3,4,4a,5-hexahydro-[1,3]dioxolo[4,5-j]phenanthridin-6(11bH)-one]: the values for the IC50 with line A549 (lung) (Homo sapiens) and in the data set with line HCT 116 (colon) (Homo sapiens) were 68 nM and 36 nM, respectively.

Take `N[C@H]1[C@H](O)[C@@H](O)[C@@H](O)[C@@H]2NC(=O)c3c(cc4c(c3O)OCO4)[C@@H]12` [Compound 6, (1R,2S,3R,4S,4aR,11bS)-1-amino-2,3,4,7-tetrahydroxy-1,2,3,4,4a,5-hexahydro-[1,3]dioxolo[4,5-j]phenanthridin-6(11bH)-one]: the IC50 in the data set on line A549 (lung) (Homo sapiens) was determined as 60 nM. Moreover, in the data set on line HCT 116 (colon) (Homo sapiens), the IC50 is 35 nM. Also, in data set [1] (D-PBS 1X, pH = 7.2), the “Solubility Buffer D-PBS 1X (pH = 7.2), mass by volume unit” value is recorded as 508 μg/mL and the “Solubility Buffer D-PBS 1X (pH = 7.2), molarity” value is on record as 1340 μM.

As for `CC(C)(C)OC(=O)N[C@H]1[C@H](O)[C@@H](O)[C@@H](O)[C@@H]2NC(=O)c3c(cc4c(c3O)OCO4)[C@@H]12` [Compound 10, tert-butyl(1R,2S,3S,4S,4aR,11bR)-2,3,4,7-tetrahydroxy-6-oxo-1,2,3,4,4a,5,6,11b-octahydro-[1,3]dioxolo[4,5-j]phenanthridin-1-ylcarbamate], the values for the IC50 in the data set with line A549 (lung) (Homo sapiens) and in the data set on line HCT 116 (colon) (Homo sapiens) were 270 nM and 32 nM, respectively.

Turning to `O=C1N[C@H]2[C@H](O)[C@H](O)[C@@H](O)[C@H](NCc3ccccc3)[C@@H]2c2cc3c(c(O)c21)OCO3` [Compound 14, (1R,2S,3R,4S,4aR,11bS)-1-(benzylamino)-2,3,4,7-tetrahydroxy-1,2,3,4,4a,5-hexahydro-[1,3]dioxolo[4,5-j]phenanthridin-6(11bH)-one], the IC50 is 22 nM with line A549 (lung) (Homo sapiens) and 12 nM in the data set with line HCT 116 (colon) (Homo sapiens).

As for `CN(C)[C@H]1[C@H](O)[C@@H](O)[C@@H](O)[C@@H]2NC(=O)c3c(cc4c(c3O)OCO4)[C@H]21` [Compound 16, (1R,2S,3S,4S,4aR,11bR)-1-(dimethylamino)-2,3,4,7-tetrahydroxy-1,2,3,4,4a,5-hexahydro-[1,3]dioxolo[4,5-j]phenanthridin-6(11bH)-one], the results for the IC50 in the data set with line A549 (lung) (Homo sapiens) and in the data set on line HCT 116 (colon) (Homo sapiens) were 150 nM and 81 nM, respectively.

Consider `O=C1N[C@H]2[C@H](O)[C@H](O)[C@@H](O)[C@H](NC(=O)C3CCCCC3)[C@@H]2c2cc3c(c(O)c21)OCO3` [Compound 21, N-((1R,2S,3R,4S,4aR,11bS)-2,3,4,7-tetrahydroxy-6-oxo-1,2,3,4,4a,5,6,11b-octahydro-[1,3]dioxolo[4,5-j]phenanthridin-1-yl)cyclohexanecarboxamide], for which the IC50 worked out at 46 nM with line A549 (lung) (Homo sapiens) and 13 nM in the data set on line HCT 116 (colon) (Homo sapiens).

Take `O=C(N[C@H]1[C@H](O)[C@@H](O)[C@@H](O)[C@@H]2NC(=O)c3c(cc4c(c3O)OCO4)[C@@H]12)c1ccccc1` [Compound 22, N-((1R,2S,3R,4S,4aR,11bS)-2,3,4,7-tetrahydroxy-6-oxo-1,2,3,4,4a,5,6,11b-octahydro-[1,3]dioxolo[4,5-j]phenanthridin-1-yl)benzamide]: the IC50 in the data set with line A549 (lung) (Homo sapiens) was 8.7 nM; with line HCT 116 (colon) (Homo sapiens), 4.7 nM. Moreover, the solubility amounted to 393 µg/mL in data set [1] (Solubility Buffer D-PBS 1X (pH = 7.2), mass by volume unit, D-PBS 1X, pH = 7.2) and 867 µM in data set [1] (Solubility Buffer D-PBS 1X (pH = 7.2), molarity, D-PBS 1X, pH = 7.2).

Take `CN(C)Cc1cccc(C(=O)N[C@H]2[C@H](O)[C@@H](O)[C@@H](O)[C@@H]3NC(=O)c4c(cc5c(c4O)OCO5)[C@@H]23)c1` [Compound 28, 3-((dimethylamino)methyl)-N-((1R,2S,3R,4S,4aR,11bS)-2,3,4,7-tetrahydroxy-6-oxo-1,2,3,4,4a,5,6,11b-octahydro-[1,3]dioxolo[4,5-j]phenanthridin-1-yl)benzamide]: the IC50 with line A549 (lung) (Homo sapiens) came to 110 nM; with line HCT 116 (colon) (Homo sapiens), 130 nM.

In the case of `N[C@H]1[C@H](O)[C@@H](O)[C@@H](O)[C@@H]2NC(=O)c3c(cc4c(c3O)OCO4)[C@@H]12` [Hydrochloride of Compound 6, (1R,2S,3R,4S,4aR,11bS)-1-amino-2,3,4,7-tetrahydroxy-1,2,3,4,4a,5-hexahydro-[1,3]dioxolo[4,5-j]phenanthridin-6(11bH)-one], in data set [1] (D-PBS 1X, pH = 7.2), the “Solubility Buffer D-PBS 1X (pH = 7.2), molarity” value is given as 3870 μM. Moreover, the “Solubility Buffer D-PBS 1X (pH = 7.2), mass by volume unit” value in data set [1] (D-PBS 1X, pH = 7.2, listed as compound 6 isolated in the hydrochloride form) is reported as 1250 μg/mL.

For `O=C1N[C@@H]2C(=C[C@H](O)[C@@H](O)[C@H]2O)c2cc3c(c(O)c21)OCO3` [Narciclasine 1, Narciclasine, reference compound], the IC50 worked out at 49 nM with line A549 (lung) and 22 nM in the data set on line HCT 116 (colon). Further, in data set [1], the solubility is 401 µM and 131 µg/mL.
